The values below come from PMC3034247 (Cell metabolism, 2010).

Residue numbers refer to the chain shown, from its start.

Assay in all cases: [3H]cholesterol saturation binding, Ni-NTA capture, scintillation counting
Assay [1] addresses T1, NPC2 (NPC2-His10) (Homo sapiens, UniProt P61916, V81A).
T1 sequence (P61916 20-151 V81A): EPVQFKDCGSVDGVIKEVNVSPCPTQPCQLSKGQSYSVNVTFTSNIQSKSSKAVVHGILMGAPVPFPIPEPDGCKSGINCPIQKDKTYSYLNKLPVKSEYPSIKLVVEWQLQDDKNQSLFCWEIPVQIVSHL

Assay [2] concerns the target T2, NPC2 (NPC2-His10) (Homo sapiens, UniProt P61916).
T2 sequence (P61916 20-151): T1 sequence (P61916 20-151 V81A) with A62V

Assay [3] addresses T3, NPC2 (NPC2-His10) (Homo sapiens, UniProt P61916, V81D).
T3 sequence (P61916 20-151 V81D): T1 sequence (P61916 20-151 V81A) with A62D

One may read the Kd as the constant that tells how readily two partners part at equilibrium. Lower therefore signals higher affinity. As to `CC(C)CCC[C@@H](C)[C@H]1CC[C@H]2[C@@H]3CC=C4C[C@@H](O)CC[C@]4(C)[C@H]3CC[C@]12C` [cholesterol], the dissociation constant (Kd) at NPC2 (NPC2-His10) [1] stood at 80 nM; at NPC2 (NPC2-His10) [2], 81 nM; on NPC2 (NPC2-His10) [3] it was 72 nM.
